Columns and labels:
[1] = refractive index (Na D-line) (dimensionless); conditions: Liquid, Standard Abbe refractometry
[2] = Liquid, Vibrating tube method
[3] = refractive index (Na D-line) (dimensionless); wn = mass fraction of the nth substance listed; conditions: 313.15 K, Liquid, Standard Abbe refractometry
[4] = wn = mass fraction of the nth substance listed; conditions: 313.15 K, Liquid, Vibrating tube method

CCCCCC[n+]1ccn(C)c1.O=S(=O)([N-]S(=O)(=O)C(F)(F)F)C(F)(F)F
Conditions | mass density, [2] [kg/m3] | refractive index, [1]
298.15 K, 101.33 kPa | 1371.99 | 1.43016
313.15 K, 101 kPa | 1356.95 | 1.42542
313.15 K, 101.3 kPa | 1356.95 | –
313.15 K, 101.33 kPa | – | 1.42542

CCCC[n+]1ccn(C)c1.O=S(=O)([N-]S(=O)(=O)C(F)(F)F)C(F)(F)F
Conditions | mass density, [2] [kg/m3] | refractive index, [1]
298.15 K, 101.33 kPa | 1436.1 | 1.42672
313.15 K, 101 kPa | 1420.7 | 1.42437
313.15 K, 101.3 kPa | 1420.7 | –
313.15 K, 101.33 kPa | – | 1.42437

CCCn1cc[n+](C)c1.O=S(=O)([N-]S(=O)(=O)C(F)(F)F)C(F)(F)F
Conditions | mass density, [2] [kg/m3] | refractive index, [1]
298.15 K, 101.33 kPa | 1473.97 | 1.42525
313.15 K, 101 kPa | 1458.33 | 1.42016
313.15 K, 101.3 kPa | 1458.33 | –
313.15 K, 101.33 kPa | – | 1.42016

CCn1cc[n+](C)c1.O=S(=O)([N-]S(=O)(=O)C(F)(F)F)C(F)(F)F
Conditions | mass density, [2] [kg/m3] | refractive index, [1]
298.15 K, 101.33 kPa | 1518.74 | 1.42307
313.15 K, 101 kPa | 1502.2 | 1.41695
313.15 K, 101.3 kPa | 1502.2 | –
313.15 K, 101.33 kPa | – | 1.41695

CCCCCC[n+]1ccn(C)c1.O=S(=O)([N-]S(=O)(=O)C(F)(F)F)C(F)(F)F + CCO
Conditions | mass density, 101 kPa [kg/m3] | mass density, 101.3 kPa [kg/m3] | refractive index, 101 kPa | refractive index, 101.3 kPa | refractive index, 10234 kPa
[3], w2 = 0.099 | – | – | 1.41392 | 1.41392 | 1.41392
[3], w2 = 0.231 | – | – | 1.40128 | 1.40128 | 1.40128
[3], w2 = 0.328 | – | – | 1.39325 | 1.39325 | 1.39325
[3], w2 = 0.529 | – | – | 1.37912 | 1.37912 | 1.37912
[3], w2 = 0.646 | – | – | 1.37165 | 1.37165 | 1.37165
[3], w2 = 0.74 | – | – | 1.36626 | 1.36626 | 1.36626
[3], w2 = 0.901 | – | – | 1.35782 | 1.35782 | 1.35782
[4], w2 = 0.099 | 1270.96 | 1270.96 | – | – | –
[4], w2 = 0.231 | 1161.07 | 1161.07 | – | – | –
[4], w2 = 0.328 | 1092.32 | 1092.32 | – | – | –
[4], w2 = 0.529 | 973.37 | 973.37 | – | – | –
[4], w2 = 0.646 | 914.93 | 914.93 | – | – | –
[4], w2 = 0.74 | 872.96 | 872.96 | – | – | –
[4], w2 = 0.901 | 808.24 | 808.24 | – | – | –

CCCC[n+]1ccn(C)c1.O=S(=O)([N-]S(=O)(=O)C(F)(F)F)C(F)(F)F + CCO
Conditions | mass density, 101 kPa [kg/m3] | mass density, 101.3 kPa [kg/m3] | refractive index, 101 kPa | refractive index, 101.3 kPa | refractive index, 10234 kPa
[3], w2 = 0.008 | – | – | 1.42305 | 1.42305 | 1.42305
[3], w2 = 0.015 | – | – | 1.42222 | 1.42222 | 1.42222
[3], w2 = 0.032 | – | – | 1.41981 | 1.41981 | 1.41981
[3], w2 = 0.084 | – | – | 1.41301 | 1.41301 | 1.41301
[3], w2 = 0.156 | – | – | 1.40517 | 1.40517 | 1.40517
[3], w2 = 0.202 | – | – | 1.40056 | 1.40056 | 1.40056
[3], w2 = 0.385 | – | – | 1.38611 | 1.38611 | 1.38611
[3], w2 = 0.48 | – | – | 1.37983 | 1.37983 | 1.37983
[4], w2 = 0.008 | 1411.58 | 1411.58 | – | – | –
[4], w2 = 0.015 | 1403.51 | 1403.51 | – | – | –
[4], w2 = 0.032 | 1384.48 | 1384.48 | – | – | –
[4], w2 = 0.084 | 1329.16 | 1329.16 | – | – | –
[4], w2 = 0.156 | 1259.12 | 1259.12 | – | – | –
[4], w2 = 0.202 | 1218.21 | 1218.21 | – | – | –
[4], w2 = 0.385 | 1077.75 | 1077.75 | – | – | –
[4], w2 = 0.48 | 1016.97 | 1016.97 | – | – | –

CCCn1cc[n+](C)c1.O=S(=O)([N-]S(=O)(=O)C(F)(F)F)C(F)(F)F + CCO
Conditions | mass density, 101 kPa [kg/m3] | mass density, 101.3 kPa [kg/m3] | refractive index, 101 kPa | refractive index, 101.3 kPa | refractive index, 10234 kPa
[3], w2 = 0.019 | – | – | 1.41801 | 1.41801 | 1.41801
[3], w2 = 0.035 | – | – | 1.4161 | 1.4161 | 1.4161
[3], w2 = 0.082 | – | – | 1.41105 | 1.41105 | 1.41105
[3], w2 = 0.133 | – | – | 1.40604 | 1.40604 | 1.40604
[3], w2 = 0.186 | – | – | 1.40101 | 1.40101 | 1.40101
[3], w2 = 0.267 | – | – | 1.39403 | 1.39403 | 1.39403
[3], w2 = 0.55 | – | – | 1.37499 | 1.37499 | 1.37499
[4], w2 = 0.019 | 1433.96 | 1433.96 | – | – | –
[4], w2 = 0.035 | 1414.83 | 1414.83 | – | – | –
[4], w2 = 0.082 | 1362.5 | 1362.5 | – | – | –
[4], w2 = 0.133 | 1309.15 | 1309.15 | – | – | –
[4], w2 = 0.186 | 1256.95 | 1256.95 | – | – | –
[4], w2 = 0.267 | 1183.97 | 1183.97 | – | – | –
[4], w2 = 0.55 | 983.52 | 983.52 | – | – | –

CCn1cc[n+](C)c1.O=S(=O)([N-]S(=O)(=O)C(F)(F)F)C(F)(F)F + CCO
Conditions | mass density, 101 kPa [kg/m3] | mass density, 101.3 kPa [kg/m3] | refractive index, 101 kPa | refractive index, 101.3 kPa | refractive index, 10234 kPa
[3], w2 = 0.014 | – | – | 1.41547 | 1.41547 | 1.41547
[3], w2 = 0.034 | – | – | 1.41333 | 1.41333 | 1.41333
[3], w2 = 0.072 | – | – | 1.40945 | 1.40945 | 1.40945
[3], w2 = 0.126 | – | – | 1.40425 | 1.40425 | 1.40425
[3], w2 = 0.278 | – | – | 1.3915 | 1.3915 | 1.3915
[3], w2 = 0.324 | – | – | 1.38812 | 1.38812 | 1.38812
[3], w2 = 0.635 | – | – | 1.36939 | 1.36939 | 1.36939
[4], w2 = 0.014 | 1481.64 | 1481.64 | – | – | –
[4], w2 = 0.034 | 1456.07 | 1456.07 | – | – | –
[4], w2 = 0.072 | 1409.69 | 1409.69 | – | – | –
[4], w2 = 0.126 | 1347.49 | 1347.49 | – | – | –
[4], w2 = 0.278 | 1195.34 | 1195.34 | – | – | –
[4], w2 = 0.324 | 1155.44 | 1155.44 | – | – | –
[4], w2 = 0.635 | 943.07 | 943.07 | – | – | –

CCO [ethanol]
Conditions | mass density, [2] [kg/m3] | refractive index, [1]
298.15 K, 101.33 kPa | 785.2 | –
313.15 K, 101 kPa | 773.03 | 1.35353
313.15 K, 101.3 kPa | 773.03 | –
313.15 K, 101.33 kPa | – | 1.35353

CCCCCCC [heptane]
298.15 K, 101.33 kPa
Conditions | mass density [kg/m3] | refractive index
[1] | – | 1.38529
[2] | 679.57 | –

From the NIST ThermoML archive (doi:10.1016/j.jct.2012.04.026)
